Measurements: patent US20210275624A1, “TREATMENTS FOR IMPROVING OR LESSENING IMPAIRMENT OF MITOCHONDRIAL FUNCTION” (priority 2020, published 2021)
Square brackets hold non-standard residues; d marks the D form. Peptide text beside a SMILES is read from it. Cya = N[C@@H](CS(=O)(=O)O)C(=O)O

How the values were obtained:
human RPE cells [1] = test: RNA-seq whole transcriptome analysis; type: cell-based; conditions: 4 hours
Experimental: RPE cells in sextuplicate wells of a 6-well plate were treated for 4 hours with HQ (250 μM or 300 μM) in the presence or absence of RSG (0.4 mM). Total RNA was extracted using an RNeasy Mini Kit and DNA was removed with TURBO DNA-free kit. RNA quality was measured with a Bioanalyzer (Agilent Genomics, Santa Clara, Calif., USA). RNA-seq libraries were prepared from poly-A enriched messenger RNA and sequenced by GENEWIZ (South […], NJ, USA) to generate approximately 20-30 million paired-end, 150 base-pair reads per sample. RNA-seq FASTQ files were quality-tested with FastQC. Reads were aligned with STAR to human genome (GRCh38.p12) and transcriptome ([…]30) references, followed by read-quantification with featureCounts. Principal component analysis (PCA) was used to visualize the high-dimensional RNA-seq dataset using the top 15 thousand genes that had the highest average counts, as normalized by DESeq2's VST method. […] Enriched biological processes were condensed and visualized with […] with similarity metric set to small and GO term size determined by Uniport Homo Sapiens database; biologically relevant processes were selected and labeled. Six enriched KEGG pathways were selected for visualization of gene expression changes, based on their biological relevance and strength of negative correlation between HQ and RSG co-treatment. Empirical RNA-seq Sample Size Analysis (ERSSA) was used to check whether the six biological replicates used in this study were sufficient for differential expression discovery; analysis was performed with log 2FC cutoff of 0.25 and 50 subsamples at each replicate level.

heme oxygenase-1 (HO-1) = test: Western blot of HO-1; type: cell-based, human; conditions: for HO-1 protein level (Western blot): 8 hours
Experimental: RPE cells in triplicate wells of a 6-well plate were treated with HQ (170 μM) in the presence or absence of RSG (0.4 mM) for 8 hours. Total protein were extracted with RIPA buffer supplemented with protease inhibitors and phosphatase inhibitors, quantified with Bradford protein assay, and subjected to SDS-PAGE and Western blot as we have previously described.^21

human RPE cells [2] = test: WST assay (mitochondrial dehydrogenase activity / cell viability); type: cell-based; conditions: 2.5 hours
Experimental: Human donor RPE cells were seeded on collagen-coated 96-well plates, 24-well plates with or without coverslips, 6-well plates (Corning-Costar Incorporated, Corning, N.Y., USA). Except for the Seahorse assay, on day 6 after plating, cells were washed twice with serum-free and phenol red-free MEM (SF-MEM), treated with HQ at a various concentrations in the presence or absence of RSG (0.4 mM) in SF-MEM for various times at 37° C. RSG co-treatment refers to the condition in which cells were treated with RSG in the presence of HQ. Control refers to the condition in which cells were not treated. RPE cells in triplicate wells of a 96-well plate were treated with HQ (150 μM) for 2.5 hours in the presence or absence of RSG (0.4 mM). The medium was removed and cells were incubated with WST-1 solution for 30 minutes at 37° C. A colorimetric assay was performed based on the cleavage of the tetrazolium salt WST-1 by mitochondrial dehydrogenases in viable cells. The plate was read on a spectrophotometer at 440 nm with a reference wavelength at 690 nm.

human RPE cells [3] = test: Determination of ROS (CM-H2DCFDA fluorescence); type: cell-based; conditions: HQ 160 μM vs control
Experimental: Human donor RPE cells were seeded on collagen-coated 96-well plates, 24-well plates with or without coverslips, 6-well plates (Corning-Costar Incorporated, Corning, N.Y., USA). Except for the Seahorse assay, on day 6 after plating, cells were washed twice with serum-free and phenol red-free MEM (SF-MEM), treated with HQ at a various concentrations in the presence or absence of RSG (0.4 mM) in SF-MEM for various times at 37° C. RSG co-treatment refers to the condition in which cells were treated with RSG in the presence of HQ. Control refers to the condition in which cells were not treated. RPE cells in triplicate wells of a 96-well black plates with clear bottoms were washed with SF-MEM, loaded with 20 μM CM-H2DCFDA in SF-MEM for 30 minutes at 37° C. and then washed twice. Cells were then treated with HQ (160 μM) in the presence or absence of RSG (0.4 mM). Fluorescence was measured at various times with a fluorescence plate reader (490 nm excitation, 522 nm emission).

dog heart failure model = test: Dog heart failure model (coronary microembolization), ventriculographic and hemodynamic measurements; type: in vivo; conditions: for Left Ventricle Ejection Fraction: n = 3, pretreatment 32; for Cardiac Output, Δ vs pretreatment / Left Ventricle Ejection Fraction, Δ vs pretreatment / Stroke Volume, Δ vs pretreatment / Cardiac Output / Mean Pulmonary Artery Wedge Pressure / L V End Diastolic Pressure / Mean Pulmonary Artery Pressure / Stroke Volume / L V End Systolic Volume / L V End Diastolic Volume / Mean Aortic Pressure / Heart Rate / Systemic Vascular Resistance / L V Peak + dP/dt: post 3rd inj.; for Cardiac Output: pretreatment 1.81; for Mean Pulmonary Artery Wedge Pressure: pretreatment 9.3; for L V End Diastolic Pressure: pretreatment 13; for Mean Pulmonary Artery Pressure: pretreatment 17; for Stroke Volume: pretreatment 21; for L V End Systolic Volume: pretreatment 43; for L V End Diastolic Volume: pretreatment 64; for Mean Aortic Pressure: pretreatment 75; for Heart Rate: pretreatment 88; for Systemic Vascular Resistance: pretreatment 3391
Experimental: An initial study was conducted to assess the effects of Risuteganib administered intravenously at doses of 1.0 mg/kg and 5.0 mg/kg in a dog heart failure model. The subject animals underwent coronary microembolization to induce heart failure as described in Sabbah, H., et al.; Chronic Therapy with Elamipretide (MTP-131), a Novel Mitochondria-Targeting Peptide, Improves Left Ventricular and Mitochondrial Function in Dogs with Advanced Heart Failure; Circ Heart Fail. 2016 February; 9(2): e002206. doi:10.1161/CIRCHEARTFAILURE.115.002206.
Three (3) dogs were received 1.0 mg/kg Risuteganib every 2 weeks for 6 weeks. After an intervening period of approximately one week, the same three (3) dogs then received 5.0 mg/kg Risuteganib every 2 weeks for 6 additional weeks. Ventriculographic and hemodynamic measurements were made prior to the first intravenous dose of Risuteganib, after the third biweekly 1.0 mg/kg intravenous dose of Risuteganib and again after the third biweekly 5.0 mg/kg intravenous dose of Risuteganib.

[4] = 1.0 mg/kg IV q 2 weeks for 6 weeks
[5] = 5.0 mg/kg IV q 2 weeks for 6 weeks

Oc1ccc(O)cc1 [HQ, hydroquinone, reference compound]
number of genes changed (differential expression) (human RPE cells [1]; HQ 250 μM or 300 μM, vs control): approximately seven thousand | HMOX-1 gene expression increase (RNA-seq) (human RPE cells [1]; HQ 250 μM): 618% | HMOX-1 gene expression increase (RNA-seq) (human RPE cells [1]; HQ 300 μM): 420% | HO-1 protein level (Western blot) (heme oxygenase-1 (HO-1); HQ 170 μM): significantly up-regulated | cell viability (WST-1) (human RPE cells [2]; HQ 150 μM): significantly decreased cell viability | ROS production (human RPE cells [3]): significantly increased

C[C@@H](O)[C@H](NC(=O)[C@H](CS(=O)(=O)O)NC(=O)CNC(=O)[C@H](CCCNC(=N)N)NC(=O)CN)C(=O)N1CCC[C@H]1C(=O)O [Risuteganib, Glycyl-L-arginylglycyl-3-sulfo-L-alanyl-L-threonyl-L-proline] (H-GRG[Cya]TP-OH)
HMOX-1 gene expression increase (RNA-seq) (human RPE cells [1]; RSG 0.4 mM co-treatment vs 250 μM HQ alone): 241% | HMOX-1 gene expression increase (RNA-seq) (human RPE cells [1]; RSG 0.4 mM co-treatment vs 300 μM HQ alone): 391% | genes regulated (differential expression) (human RPE cells [1]; RSG 0.4 mM co-treatment vs HQ alone): regulated thousands of genes | number of differentially expressed (DE) genes (human RPE cells [1]; RSG alone 0.4 mM, vs control): 15 genes | Left Ventricle Ejection Fraction (dog heart failure model; 1.0 mg/kg IV q 2 weeks for 6 weeks, post 3rd 1.0 mg/kg IV inj.): 37% | Cardiac Output, Δ vs pretreatment (dog heart failure model; [4]): Δ = +0.14 L/min | Left Ventricle Ejection Fraction, Δ vs pretreatment (dog heart failure model; [4]): Δ = +5% | Stroke Volume, Δ vs pretreatment (dog heart failure model; [4]): Δ = +2 mL | Cardiac Output (dog heart failure model; [4]): 1.95 L/min | Mean Pulmonary Artery Wedge Pressure (dog heart failure model; [4]): 9.0 mmHg | L V End Diastolic Pressure (dog heart failure model; [4]): 13 mmHg | Mean Pulmonary Artery Pressure (dog heart failure model; [4]): 16 mmHg | Stroke Volume (dog heart failure model; [4]): 23 mL | L V End Systolic Volume (dog heart failure model; [4]): 0.04 L | L V End Diastolic Volume (dog heart failure model; [4]): 0.063 L | Mean Aortic Pressure (dog heart failure model; [4]): 71 mmHg | Heart Rate (dog heart failure model; [4]): 86 beats/min | Systemic Vascular Resistance (dog heart failure model; [4]): 2954 dynes-sec-cm-5 | Left Ventricle Ejection Fraction (dog heart failure model; 5.0 mg/kg IV q 2 weeks for 6 weeks, post 3rd 5.0 mg/kg IV inj.): 41% | Cardiac Output, Δ vs pretreatment (dog heart failure model; [5]): Δ = +0.57 L/min | Left Ventricle Ejection Fraction, Δ vs pretreatment (dog heart failure model; [5]): Δ = +9% | Stroke Volume, Δ vs pretreatment (dog heart failure model; [5]): Δ = +5 mL | Cardiac Output (dog heart failure model; [5]): 2.38 L/min | Mean Pulmonary Artery Wedge Pressure (dog heart failure model; [5]): 9.0 mmHg | L V End Diastolic Pressure (dog heart failure model; [5]): 13 mmHg | Mean Pulmonary Artery Pressure (dog heart failure model; [5]): 16 mmHg | Stroke Volume (dog heart failure model; [5]): 27 mL | L V End Systolic Volume (dog heart failure model; [5]): 0.039 L | L V End Diastolic Volume (dog heart failure model; [5]): 0.067 L | Mean Aortic Pressure (dog heart failure model; [5]): 84 mmHg | Heart Rate (dog heart failure model; [5]): 87 beats/min | Systemic Vascular Resistance (dog heart failure model; [5]): 2924 dynes-sec-cm-5 | L V Peak + dP/dt (dog heart failure model; first line so headed (r26), 1.0 mg/kg IV q 2 weeks for 6 weeks, pretreatment 1241): 1267 mmHg/sec | L V Peak + dP/dt (dog heart failure model; first line so headed (r26), 5.0 mg/kg IV q 2 weeks for 6 weeks, pretreatment 1241): 1288 mmHg/sec | cardiac function (dog heart failure model; heart failure dogs, 1.0 mg/kg and 5.0 mg/kg intravenously): improved | L V Peak + dP/dt (dog heart failure model; second line so headed (r29), 1.0 mg/kg IV q 2 weeks for 6 weeks, pretreatment 1509): 1325 mmHg/sec | L V Peak + dP/dt (dog heart failure model; second line so headed (r29), 5.0 mg/kg IV q 2 weeks for 6 weeks, pretreatment 1509): 1338 mmHg/sec | HO-1 protein level (Western blot) (heme oxygenase-1 (HO-1); RSG 0.4 mM co-treatment with HQ 170 μM): further up-regulated | cellular stress and HO-1 activation (heme oxygenase-1 (HO-1); RSG alone): did not induce observable cellular stress and HO-1 activation | cell viability (WST-1, mitochondrial dehydrogenase activity) (human RPE cells [2]; RSG 0.4 mM co-treatment with HQ 150 μM, vs HQ alone): significantly increased cell viability
